Three compounds from paper PMC8548882, “The Trp-rich Antimicrobial Amphiphiles With Intramolecular Aromatic Interactions for the Treatment of Bacterial Infection” (Frontiers in Microbiology, 2021) can be followed below.

Ends that are not written are not given here.

For one data set, the system named is normal skin tissue. Kind of data set: Skin toxicity, TUNEL assay. The settings on record: subcutaneous injection, 24h; VW5 5mg/kg; DMSO 100μl 100%.
In the next data set the test system is P. aeruginosa 27853. The class given is cell-based, Pseudomonas aeruginosa ATCC 27853. The settings on record: 27853. The procedure:
The famous microtiter dilution, National Committee for Clinical Laboratory Standards, was adopted to measure the antimicrobial ability of the engineering peptides ([Chou et al., 2016]). In brief, the 50μl with serial dilution was incubated with the same volume bacteria (1×10^5CFU/ml in midi-logarithmic phase) in a 96-well plate 18–24h at 37°C. The positive control was the bacteria treated with culture medium and the negative control was merely culture medium. […] The antimicrobial performance of peptides against P. aeruginosa 27853 cells was further studied under the complicated physiological conditions ([Lyu et al., 2016]). […] The serum was also taken into the consideration for the adverse impact on the antimicrobial effect of peptides.

For another data set, the system named is HEK 293T cells. It is filed as cell-based, human. The settings on record: ratio of IC50 to GM. How it is done:
(§1) The MTT (3-[4,5 dimethylthiozol-2-yl]-2,5-diphenylterazoliumbromide) dye was selected to analyze the cytotoxicity of peptides against the murine macrophage cell RAW 264.7 (National Collection of Authenticated Cell Cultures, Shanghai, China), human embryonic kidneys (HK293T), and the porcine intestinal epithelial cells (IPEC-J2) as in our previously study ([Li et al., 2020]). In short, the cells (10^4 cells/well) were seeded into 96-well plates and were cultivated overnight. Then the peptides with different final concentration (2μM, 4μM, 8μM, 16μM, 32μM, 64μM, and 128μM) were introduced into the plate and challenged with cells for 24h. After overnight incubation, the 50μl MTT (0.5mg/ml) was added into the cell cultures for 4h. Then the plate was centrifuged to discard the supernatants and obtain the formazan crystals. The DMSO (dimethyl sulfoxide) was employed as a solvent to dissolve the formazan crystals on the bottom of the plate and the optical density was read at 492nm with a microplate reader.

The next data set relates to S.typhimurium 7731. The class given is cell-based, Salmonella enterica serovar typhimurium C77-31. From the text:
(§2) The tested strains were kindly provided by the laboratory of Veterinary Microbiology and Immunology, the College of Veterinary Medicine, Northeast Agricultural University (gram-negative bacteria, Salmonella enterica serovar typhimurium C77-31, Salmonella typhimurium ATCC 14028, Escherichia coli ATCC 25922, Pseudomonas aeruginosa ATCC 27853 and gram-positive bacteria, Staphylococcus aureus ATCC 29213, Staphylococcus aureus ATCC 43300, Staphylococcus epidermidis ATCC 12228, Staphylococcus aureus ATCC 25923).

Data set [1] relates to panel of gram-negative and gram-positive bacteria. The following applies: over the eight strains of Table 2. How it is done:
(§3) The famous microtiter dilution, National Committee for Clinical Laboratory Standards, was adopted to measure the antimicrobial ability of the engineering peptides ([Chou et al., 2016]). In brief, the 50μl with serial dilution was incubated with the same volume bacteria (1×10^5CFU/ml in midi-logarithmic phase) in a 96-well plate 18–24h at 37°C. The positive control was the bacteria treated with culture medium and the negative control was merely culture medium. The MICs (minimum inhibitory concentrations) were defined as the lowest concentration of peptides that prevented the production of visible turbidity ([Tossi et al., 2000]).

Data set [2] relates to human red blood cells (hRBCs). Kind of data set: Hemolytic activity. The class given is cell-based. The following applies: for HC5 (MHC), lowest concentration that caused 5% hemolysis: hRBC in PBS pH 7.2, 1h at 37°C, absorbance 570nm, vs 0.1% Triton X-100, highest test concentration 128μM; for Therapeutic index (TI): hRBC, ratio of MHC to GM. The text has this: The hemolytic activity of peptides was reflected by the releasing amount of hemoglobin from erythrocytes lysis induced by peptides ([Dong et al., 2014a]). The informed consent was obtained from the volunteers (3 healthy 25-year-old male volunteers) before the experiment. In brief, the human red blood cells (hRBCs), donated by volunteer, were collected, washed, and resuspended in PBS at pH 7.2. The peptides were serially diluted in PBS at different concentrations in a 96-well cell cultures plate and incubated with 50μl hRBCs for 1h at 37°C. The 0.1% Trition X-100 was selected as the treatment of positive control and the negative control was the hRBCs treated with PBS. After 1h incubation, the supernatant, obtained by centrifuging the plate 1,000g for 5min, was transferred to a brand-new plate for absorbance detection at 570nm. The releasing amount of hemoglobin was converted to the percent hemolysis against to 0.1% Triton X-100 treatment. The lowest concentration caused 5% hemolysis of hRBCs and was defined as the lowest hemolytic concentration of antimicrobial peptide.

A further data set concerns S.epidermidis 12228. It is filed as cell-based, Staphylococcus epidermidis ATCC 12228.
Text: as §2

The test system of the next data set is S.typhimurium 14028. It is filed as cell-based, Salmonella typhimurium ATCC 14028.
Text: as §2

The next data set concerns IPEC-J2 cells. The class given is cell-based, porcine. The settings on record: IPEC-J2; ratio of IC50 to GM. The procedure:
as §1

Another data set concerns E. coli 25922. It is filed as cell-based, Escherichia coli ATCC 25922.
Text: as §2

For another data set, the system named is MRSA 43300. The class given is cell-based, Staphylococcus aureus ATCC 43300. The following applies: microtiter dilution, 1×10^5CFU/ml, 18–24h at 37°C, visible turbidity.
Text: as §2, §3

For a further data set, the system named is P.aeruginosa 27853. It is filed as cell-based, Pseudomonas aeruginosa ATCC 27853. The settings on record: 27853.
Text: as §2, §3

The subject of a further data set is S.aureus 25923. It is filed as cell-based, Staphylococcus aureus ATCC 25923. The settings on record: 25923.
Text: as §2, §3

The test system of another data set is RAW 264.7 cells. The class given is cell-based, murine. The settings on record: RAW264.7; ratio of IC50 to GM. The procedure: as §1
Data set [3] has as its system hRBC, IPEC-J2, HEK 293T, RAW264.7. How it is done: Besides, the therapeutic index of peptide in the mammalian eukaryotic cell (RAW 264.7, HEK 293T, and IPEC J2) was also calculated to study the biocompatibility of peptides.
The next data set deals with S.aureus 29213. It is filed as cell-based, Staphylococcus aureus ATCC 29213. The settings on record: 29213.
Text: as §2, §3

Protocol for normal skin tissue: The potential toxicity of peptides to normal skin tissues was further tested by TUNEL assay ([Huang et al., 2009]). […] The 100μl 100% DMSO treatment served as a positive control, which was well-known for its toxicity to induce skin necrosis. Then, the skin samples were harvested and were subjected to TUNEL assay and counterstain with 4,6-diamidino-2-phenylindole (DAPI).

In the case of `C[S+](C)[O-]` [DMSO, dimethyl sulfoxide], the “apoptotic cells in epidermal layer (TUNEL)” value in the data set on normal skin tissue is given as “heavy cell apoptosis”.
What is called MIC is the least concentration at which growth counts as inhibited. Low readings indicate a more susceptible organism, high ones a less susceptible organism. For the compound VKKLVKKAVKKLVKKA-NH2 [VL1], the MIC in the data set on P. aeruginosa 27853, with S.typhimurium 7731, against S.epidermidis 12228, with S.typhimurium 14028, in the data set with E. coli 25922 and in the data set on MRSA 43300 was more than 64 µM in each case. Also, the MIC in the data set with P.aeruginosa 27853, against S.aureus 25923 and with S.aureus 29213 was more than 64 µM throughout. In addition, the “Therapeutic index (TI)” value in the data set with HEK 293T cells was 75.40; in data set [2], more than 1.00; in the data set on IPEC-J2 cells, 58.65; in the data set with RAW 264.7 cells it was 68.71. In addition, the “GMMIC, geometric mean of the MICs” value in data set [1] was determined as 128.00 µM. The “HC5 (MHC), lowest concentration that caused 5% hemolysis” value in data set [2] was more than 128 µM. Moreover, in data set [3], the “GMTI, geometric mean of TI of various cell lines” value was more than 23.48.
VKKWVKKWVKKWVKKA-NH2 [VW4]: the “Therapeutic index (TI)” value in the data set with HEK 293T cells was 2751.71; in [2], more than 38.1; in the data set on IPEC-J2 cells it was 1855.95; in the data set on RAW 264.7 cells, 1855.65. For the same compound, the minimal inhibitory concentration (MIC) in the data set on S.typhimurium 7731 was 2 µM; against S.epidermidis 12228, 4 µM; in the data set with S.typhimurium 14028, 4 µM; in the data set with E. coli 25922, 4 µM; with MRSA 43300, 4 µM; with P.aeruginosa 27853 it was 2 µM. Besides, the MIC with S.aureus 25923 and in the data set on S.aureus 29213 was 4 µM throughout. In addition, in data set [1], the “GMMIC, geometric mean of the MICs” value was found to be 3.36 µM. Further, in data set [2], the “HC5 (MHC), lowest concentration that caused 5% hemolysis” value is more than 128 µM. Further, the “GMTI, geometric mean of TI of various cell lines” value in data set [3] is given as more than 775.15.
